Laboratory results from patent US20250332173A1, “COMPOUNDS AND METHODS FOR MODULATING NUCLEIC ACID SPLICING” (REMIX THERAPEUTICS INC., priority 2021, published 2025).
Read-outs that look alike come from different tables or passages of the source.

How the values were obtained:
Target C = assay: RT-qPCR splicing assay panel, Target C canonical junction (CJ) mRNA; assay type: cell-based, human; details: Homo sapiens; canonical junction qPCR panel, Table 5; read-out: Target C (decrease in CJ mRNA levels, IC50)
Procedure, shortened: (§1)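 Canonical exon-exon junction transcript levels measured by one-step RT-qPCR of cell lysates, normalized to a housekeeping gene (GAPDH, GUSB or PPIA). Cells used were A673 or K562, exposed for 24 h to compound in 11-point, 3-fold series from 10 uM, with final DMSO at or below 0.25%.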

SMN2 mRNA = assay: RT-qPCR splicing assay, SMN2 canonical junction (CJ) mRNA; assay type: cell-based, human; details: Homo sapiens; canonical junction qPCR panel, Table 5; read-out: SMN2 (decrease in CJ mRNA levels, IC50)
Procedure, shortened: as §1

[1] = tested on: K562 (human chronic myelogenous leukemia) cells; assay: Cell Titer Glo 2.0 cell viability assay; assay type: cell-based; details: K562 cells, 72 hours, Cell Titer Glo 2.0, read-out: K562 GI50
HTT mRNA = assay: RT-qPCR splicing assay, HTT canonical junction (CJ) and alternative junction (AJ) mRNA; assay type: cell-based, human; details: Homo sapiens; for AC50: increase in HTT alternative junction (AJ) mRNA, read-out: HTT AJ AC50
Procedure, shortened: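 Following a 24-hour incubation of A673 or K562 cells with serially diluted compound (3-fold steps, highest final 10 uM), the lysates undergo cDNA synthesis plus qPCR. Canonical and alternative junctions are each quantified against PPIA, GAPDH or GUSB.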

[2] = decrease in HTT canonical junction (CJ) mRNA, RT-qPCR, read-out: HTT CJ IC50
[3] = canonical junction qPCR panel, Table 5, read-out: HTT (decrease in CJ mRNA levels, IC50)

IC50 (Target C)	IC50 (SMN2 mRNA)	GI50 ([1]; Homo sapiens, K562, 72 h)	IC50 (HTT mRNA; [2])	IC50 (HTT mRNA; [3])	GI50 [1]	Structure (SMILES)	AC50 (HTT mRNA; RT-qPCR)
1000 to 10000 nM	< 100 nM	100 to 1000 nM	1000 to 10000 nM	100 to 1000 nM		Cc1c(O)c(-c2ncc3c(=O)n([C@@H]4CC[C@@H](N)C4)ccc3n2)cc2cn(C)nc12 [Compound 1476, 6-[(1R,3R)-3-aminocyclopentyl]-2-(6-hydroxy-2,7-dimethyl-indazol-5-yl)pyrido[4,3-d]pyrimidin-5-one]	100 to 1000 nM
100 to 1000 nM	< 100 nM		100 to 1000 nM	< 100 nM	< 100 nM	Cc1c(O)c(-c2ncc3c(=O)n([C@@H]4CC[C@H](N)C4)ccc3n2)cc2cn(C)nc12 [Compound 1477]	< 100 nM
1000 to 10000 nM	< 100 nM	< 100 nM	1000 to 10000 nM	1000 to 10000 nM		CNC12CCC(n3ccc4nc(-c5cc6cn(C)nc6c(C)c5O)ncc4c3=O)(CC1)C2 [Compound 1479]	1000 to 10000 nM
100 to 1000 nM	< 100 nM	100 to 1000 nM	100 to 1000 nM	< 100 nM		COc1cc(-c2ccc3c(=O)n([C@H]4CCN[C@@H](C)C4)ccc3n2)nn2cc(C)nc12 [Compound 1519, 2-(8-methoxy-2-methyl-imidazo[1,2-b]pyridazin-6-yl)-6-[(2S,4S)-2-methyl-4-piperidyl]-1,6-naphthyridin-5-one]	< 100 nM
100 to 1000 nM	< 100 nM	100 to 1000 nM	100 to 1000 nM	100 to 1000 nM		Cc1cn2nc(-c3ccc4c(=O)n([C@@H]5CCN(C)[C@H](C)C5)ncc4n3)cc(C)c2n1 [Compound 1527]	100 to 1000 nM
100 to 1000 nM	100 to 1000 nM	100 to 1000 nM	100 to 1000 nM	100 to 1000 nM		Cc1cn2nc(-c3ccc4c(=O)n([C@H]5CCN(C)[C@@H](C)C5)ncc4n3)cc(C)c2n1 [Compound 1528, 2-(2,8-dimethylimidazo[1,2-b]pyridazin-6-yl)-6-(1,2-dimethyl-4-piperidyl)pyrido[2,3-d]pyridazin-5-one]	100 to 1000 nM
< 100 nM	< 100 nM	100 to 1000 nM	< 100 nM	< 100 nM		CCN1CC[C@@H](n2ncc3nc(-c4cc(C)c5nc(C)cn5n4)ccc3c2=O)CC12CC2 [Compound 1530]	< 100 nM
100 to 1000 nM	< 100 nM	100 to 1000 nM	100 to 1000 nM	< 100 nM		CCN1CC[C@H](n2ncc3nc(-c4cc(C)c5nc(C)cn5n4)ccc3c2=O)CC12CC2 [Compound 1531]	< 100 nM
100 to 1000 nM	< 100 nM	100 to 1000 nM	100 to 1000 nM	< 100 nM		Cc1cn2nc(-c3ccc4c(=O)n([C@H]5CCN(C)C6(CC6)C5)ncc4n3)cc(C)c2n1 [Compound 1533]	< 100 nM
< 100 nM	< 100 nM	100 to 1000 nM	< 100 nM	< 100 nM		Cc1cn2nc(-c3ccc4c(=O)n([C@@H]5CCN(C)C6(CC6)C5)ncc4n3)cc(C)c2n1 [Compound 1534]	< 100 nM
100 to 1000 nM	< 100 nM	1000 to 10000 nM	100 to 1000 nM	< 100 nM		Cc1cn2nc(-c3ccc4c(=O)n(C5CCN(CCO)C6(CC6)C5)ncc4n3)cc(C)c2n1 (stereo not drawn) [Compound 1541, 2-(2,8-dimethylimidazo[1,2-b]pyridazin-6-yl)-6-[4-(2-hydroxyethyl)-4-azaspiro[2.5]octan-7-yl]pyrido-[2,3-d]pyridazin-5-one]	< 100 nM
1000 to 10000 nM	100 to 1000 nM	1000 to 10000 nM	100 to 1000 nM	100 to 1000 nM		Cc1cn2nc(-c3ccc4c(=O)n(C5CCN(CCF)C6(CC6)C5)ncc4n3)cc(C)c2n1 (stereo not drawn) [Compound 1542, 2-(2,8-dimethylimidazo[1,2-b]pyridazin-6-yl)-6-[4-(2-fluoroethyl)-4-azaspiro[2.5]octan-7-1]pyrido[2,3-d]pyridazin-5-one]	100 to 1000 nM
100 to 1000 nM	< 100 nM	100 to 1000 nM	< 100 nM	< 100 nM		Cc1cn2nc(-c3ccc4c(=O)n(C5CCN(CC6CC6)C6(CC6)C5)ncc4n3)cc(C)c2n1 (stereo not drawn) [Compound 1543, 6-[4-(cyclopropylmethyl)-4-azaspiro[2.5]octan-7-yl]-2-(2,8-dimethylimidazo[1,2-b]pyridazin-6-yl)pyrido[2,3-d]pyridazin-5-one]	< 100 nM
100 to 1000 nM	< 100 nM	100 to 1000 nM	< 100 nM	< 100 nM		Cc1cn2nc(-c3ccc4c(=O)n([C@@H]5CCNC6(CCC6)C5)ncc4n3)cc(C)c2n1 [Compound 1545, 6-[(8R)-5-azaspiro[3.5]nonan-8-yl]-2-(2,8-dimethylimidazo[1,2-b]pyridazin-6-yl)pyrido[2,3-d]pyridazin-5-one]	< 100 nM
1000 to 10000 nM	100 to 1000 nM	1000 to 10000 nM	1000 to 10000 nM	100 to 1000 nM		Cc1cn2nc(-c3ccc4c(=O)n(C5CCNC6(CCC6)C5)ncc4n3)cc(C)c2n1 (stereo not drawn) [Compound 1553]	100 to 1000 nM
1000 to 10000 nM	> 10000 nM	> 10000 nM	> 10000 nM	> 10000 nM		Cn1cc2ccc(-n3cnc4ccc(NC5CCNCC5)cc4c3=O)cc2n1 [Compound 2164]	> 10000 nM
> 10000 nM	> 10000 nM	> 10000 nM	> 10000 nM	> 10000 nM		Cc1cc(-c2ccc3ncn(C4CCNCC4)c(=O)c3c2)cc2cn(C)nc12 [Compound 2169]	> 10000 nM
> 10000 nM	> 10000 nM	> 10000 nM	> 10000 nM	> 10000 nM		Cc1cc(-c2ccc3ncn(C4CCN(C)CC4)c(=O)c3c2)cc2cn(C)nc12 [Compound 2170]	> 10000 nM
> 10000 nM	> 10000 nM	> 10000 nM	> 10000 nM	> 10000 nM		CN1CCC(Nc2ccc3ncn(-c4ccc5nn(C)cc5c4)c(=O)c3c2)CC1 [Compound 2171]	> 10000 nM
> 10000 nM	> 10000 nM	> 10000 nM	> 10000 nM	> 10000 nM		Cc1cn2cc(-n3cnc4ccc(N5CCNCC5)cc4c3=O)cc(F)c2n1 [Compound 2195]	> 10000 nM
> 10000 nM	> 10000 nM	> 10000 nM	> 10000 nM	> 10000 nM		Cn1cc2cc(-n3cnc4ccc(N5CCNCC5)cc4c3=O)cc(F)c2n1 [Compound 2196]	> 10000 nM
1000 to 10000 nM	1000 to 10000 nM	1000 to 10000 nM	1000 to 10000 nM	1000 to 10000 nM		Cc1cn2cc(-n3cnc4ccc(N5CCN(C)CC5)cc4c3=O)cc(F)c2n1 [Compound 2197]	1000 to 10000 nM
> 10000 nM	> 10000 nM	> 10000 nM	> 10000 nM	> 10000 nM		Cc1cn2nc(-n3cnc4ccc(N5CCNCC5)cc4c3=O)cc(C)c2n1 [Compound 2201]	> 10000 nM
1000 to 10000 nM	1000 to 10000 nM	1000 to 10000 nM	1000 to 10000 nM	1000 to 10000 nM		Cc1cn2nc(-n3cnc4ccc(N5CCN(C)CC5)cc4c3=O)cc(C)c2n1 [Compound 2202]	1000 to 10000 nM
> 10000 nM	> 10000 nM	> 10000 nM	> 10000 nM	> 10000 nM		Cc1cc(-c2ccc3c(=O)[nH]c(N4CCNCC4)nc3c2)cc2cn(C)nc12 [Compound 2211]	> 10000 nM
1000 to 10000 nM	1000 to 10000 nM	1000 to 10000 nM	1000 to 10000 nM	1000 to 10000 nM		Cc1cc(-c2ccc3c(=O)[nH]c(N4CCN(C)CC4)nc3c2)cc2cn(C)nc12 [Compound 2212]	1000 to 10000 nM
> 10000 nM	> 10000 nM	1000 to 10000 nM	> 10000 nM	> 10000 nM		Cc1cc(-c2nc3cc(N4CCNCC4)ccc3c(=O)[nH]2)cc2cn(C)nc12 [Compound 2213]	> 10000 nM

Structure (SMILES)	IC50 (Target C)	IC50 (SMN2 mRNA)	GI50 ([1]; Homo sapiens, K562, 72 h)	IC50 (HTT mRNA; [2])	IC50 (HTT mRNA; [3])	GI50 [1]	AC50 (HTT mRNA; RT-qPCR)
CN(c1ccc2ncn(-c3cc(F)c4nn(C)cc4c3)c(=O)c2c1)C1CCNCC1 [Compound 2198]	> 10000 nM	> 10000 nM	> 10000 nM	> 10000 nM	> 10000 nM		> 10000 nM
CN1CCC(N(C)c2ccc3ncn(-c4cc(F)c5nn(C)cc5c4)c(=O)c3c2)CC1 [Compound 2199]	> 10000 nM	> 10000 nM	> 10000 nM	> 10000 nM	> 10000 nM		> 10000 nM
Cc1cn2cc(-n3cnc4ccc(N(C)C5CCNCC5)cc4c3=O)cc(F)c2n1 [Compound 2200]	> 10000 nM	> 10000 nM	> 10000 nM	> 10000 nM	> 10000 nM		> 10000 nM
